Measured values reported in patent US9895338B1, “Cobalt-polypyridyl complex for treatment of cancer, a pharmaceutical composition and a kit comprising it” (Macau University of Science and Technology, priority 2016, dated 2018).

Experiments:
[1] = tested on: OV2008 cervical cancer cells; test: MTT cytotoxicity, OV2008 (cisplatin-sensitive); assay type: cell-based; conditions: 72 h
Experimental: (§1) All prepared cobalt-polypyridyl complexes were dissolved in DMSO at a final concentration of 50 mmol/L and stored at −20° C. before use. Cytotoxicity was assessed by using the 3-(4,5-dimethylthiazol-2-yl)-2,5-diphenyltetrazolium bromide (MTT) (5.0 mg/ml) assay as previously described (Wong, V. K. et al., Cell Death Dis, 2013, 4, e720). Briefly, 4×10^3 cells per well were seeded in 96-well plates before drug treatments. After overnight culture, the cells were then exposed to different concentrations of selected compounds (0.039-100 μmol/L) for 72 h. Cells without drug treatment were used as control. Subsequently, MTT (10 μL) solution was added to each well and incubated at 37° C. for 4 h followed by the addition of 100 μL solubilization buffer (10% SDS in 0.01 mol/L HCl) and overnight incubation. A570 nm was then determined in each well on the next day. The percentage of cell viability was calculated using the following formula: Cell viability (%)=Atreated/Acontrol×100. Data were obtained from three independent experiments.
(§2) Cisplatin-sensitive or -resistant A2780, OV2008 and C13 cancer cells were provided by Prof. Benjamin Tsang (Department of Obstetrics and Gynecology and Department of Cellular and Molecular Medicine, University of Ottawa, Canada). HCT116 p53^+/+ and p53^−/− isogenic human colon cancer cells were provided by Professor Bert Vogelstein (Ludwig Center at Johns Hopkins, Howard Hughes Medical Institute, USA). All media were supplemented with 10% fetal bovine serum and the antibiotics penicillin (50 U/ml) and streptomycin (50 μg/ml; Invitrogen, Paisley, Scotland, UK). All cell cultures were incubated at 37° C. in a 5% humidified CO2 incubator.

[2] = tested on: MCF-7 (breast cancer); test: MTT cytotoxicity assay, MCF-7; assay type: cell-based; conditions: MCF-7, MTT, 72 h
Experimental: as §1, with “experiments. Cells include HeLa cells (cervical cancer), MCF-7 (breast cancer), H1299, H1975, A549 and LLC-1 (lung cancer), HepG2 and Hep3B (liver cancer) and LO2 (normal human hepatocytes).” for “experiments.”

[3] = tested on: OV2008/C13 cervical cancer cells; test: MTT cytotoxicity, OV2008/C13 (cisplatin-resistant); assay type: cell-based; conditions: for IC50: OV2008/C13, MTT, 72 h; for Resistant Factor: OV2008/C13 over OV2008
Experimental: as §1, §2

[4] = tested on: Taxol-resistant HCT8 cancer cells; test: MTT cytotoxicity, taxol-resistant HCT8; assay type: cell-based; conditions: for IC50: HCT8, MTT, 72 h; for Resistant Factor: HCT8, IC50 taxol-resistant over IC50 taxol-sensitive
Experimental: as §1
(§3) All cells were obtained from the American Type Culture Collection (Rockville, Md., USA) unless otherwise specified. Immortalized wild-type and Atg7-deficient mouse embryonic fibroblasts (MEFs) were provided by Professor Masaaki Komatsu (Juntendo University, School of Medicine, Japan). Taxol-resistant types of A549, MCF-7, HCT-8 cancer cells, cisplatin-resistant SGC7901 cancer cells were purchased from KeyGEN BioTECH, China.

[5] = tested on: Hep 3B (liver cancer); test: MTT cytotoxicity assay, Hep3B; assay type: cell-based; conditions: 72 h
Experimental: as §1, with “experiments. Cells include HeLa cells (cervical cancer), MCF-7 (breast cancer), H1299, H1975, A549 and LLC-1 (lung cancer), HepG2 and Hep3B (liver cancer) and LO2 (normal human hepatocytes).” for “experiments.”

[6] = tested on: H1975 (lung cancer); test: MTT cytotoxicity assay, H1975; assay type: cell-based; conditions: 72 h
Experimental: as §1, with “experiments. Cells include HeLa cells (cervical cancer), MCF-7 (breast cancer), H1299, H1975, A549 and LLC-1 (lung cancer), HepG2 and Hep3B (liver cancer) and LO2 (normal human hepatocytes).” for “experiments.”

[7] = tested on: Taxol-sensitive A549 cancer cells; test: MTT cytotoxicity, taxol-sensitive A549; assay type: cell-based; conditions: 72 h
Experimental: as §1

[8] = tested on: HCT116 p53^−/− colon cancer cells; test: MTT cytotoxicity, HCT116 p53-/-; assay type: cell-based, human; conditions: for Resistant Factor: HCT116 p53^−/− over HCT116 p53^+/+; for IC50: MTT, 72 h
Experimental: as §1, §2

[9] = tested on: cisplatin-sensitive SGC-7901 gastric cancer cells; test: MTT cytotoxicity, cisplatin-sensitive SGC-7901; assay type: cell-based; conditions: SGC-7901, MTT, 72 h
Experimental: as §1

[10] = tested on: cisplatin-resistant SGC-7901 gastric cancer cells; test: MTT cytotoxicity, cisplatin-resistant SGC-7901; assay type: cell-based; conditions: for IC50: SGC-7901, MTT, 72 h; for Resistant Factor: SGC-7901, cisplatin-resistant over cisplatin-sensitive
Experimental: as §1, §3

[11] = tested on: H1299 (lung cancer); test: MTT cytotoxicity assay, H1299; assay type: cell-based, human; conditions: 72 h
Experimental: as §1, with “experiments. Cells include HeLa cells (cervical cancer), MCF-7 (breast cancer), H1299, H1975, A549 and LLC-1 (lung cancer), HepG2 and Hep3B (liver cancer) and LO2 (normal human hepatocytes).” for “experiments.”

[12] = tested on: LLC-1 (lung cancer); test: MTT cytotoxicity assay, LLC-1; assay type: cell-based; conditions: LLC-1, MTT, 72 h
Experimental: as §1, with “experiments. Cells include HeLa cells (cervical cancer), MCF-7 (breast cancer), H1299, H1975, A549 and LLC-1 (lung cancer), HepG2 and Hep3B (liver cancer) and LO2 (normal human hepatocytes).” for “experiments.”

[13] = tested on: Taxol-sensitive MCF-7 cancer cells; test: MTT cytotoxicity, taxol-sensitive MCF-7; assay type: cell-based; conditions: MCF-7, MTT, 72 h
Experimental: as §1

[14] = tested on: HCT116 p53^+/+ colon cancer cells; test: MTT cytotoxicity, HCT116 p53+/+; assay type: cell-based, human; conditions: 72 h
Experimental: as §1, §2

[15] = tested on: cisplatin-resistant A2780 ovarian cancer cells; test: MTT cytotoxicity, cisplatin-resistant A2780; assay type: cell-based; conditions: for IC50: A2780, MTT, 72 h; for Resistant Factor: A2780, cisplatin-resistant over cisplatin-sensitive
Experimental: as §1, §2

[16] = tested on: HeLa cells (cervical cancer); test: MTT cytotoxicity assay, HeLa; assay type: cell-based; conditions: 72 h
Experimental: as §1, with “experiments. Cells include HeLa cells (cervical cancer), MCF-7 (breast cancer), H1299, H1975, A549 and LLC-1 (lung cancer), HepG2 and Hep3B (liver cancer) and LO2 (normal human hepatocytes).” for “experiments.”

[17] = tested on: Taxol-resistant A549 cancer cells; test: MTT cytotoxicity, taxol-resistant A549; assay type: cell-based; conditions: for IC50: A549, MTT, 72 h; for Resistant Factor: A549, IC50 taxol-resistant over IC50 taxol-sensitive
Experimental: as §1, §3

[18] = tested on: Taxol-sensitive HCT8 cancer cells; test: MTT cytotoxicity, taxol-sensitive HCT8; assay type: cell-based; conditions: 72 h
Experimental: as §1

[19] = tested on: Taxol-resistant MCF-7 cancer cells; test: MTT cytotoxicity, taxol-resistant MCF-7; assay type: cell-based; conditions: for IC50: MCF-7, MTT, 72 h; for Resistant Factor: MCF-7, IC50 taxol-resistant over IC50 taxol-sensitive
Experimental: as §1, §3

[20] = tested on: cisplatin-sensitive A2780 ovarian cancer cells; test: MTT cytotoxicity, cisplatin-sensitive A2780; assay type: cell-based; conditions: 72 h
Experimental: as §1, §2

[21] = tested on: A549 (lung cancer); test: MTT cytotoxicity assay, A549; assay type: cell-based; conditions: 72 h
Experimental: as §1, with “experiments. Cells include HeLa cells (cervical cancer), MCF-7 (breast cancer), H1299, H1975, A549 and LLC-1 (lung cancer), HepG2 and Hep3B (liver cancer) and LO2 (normal human hepatocytes).” for “experiments.”

[22] = tested on: HepG2 (liver cancer); test: MTT cytotoxicity assay, HepG2; assay type: cell-based; conditions: 72 h
Experimental: as §1, with “experiments. Cells include HeLa cells (cervical cancer), MCF-7 (breast cancer), H1299, H1975, A549 and LLC-1 (lung cancer), HepG2 and Hep3B (liver cancer) and LO2 (normal human hepatocytes).” for “experiments.”

[23] = tested on: LO2 (normal human hepatocytes); test: MTT cytotoxicity assay, LO2; assay type: cell-based; conditions: 72 h
Experimental: as §1, with “experiments. Cells include HeLa cells (cervical cancer), MCF-7 (breast cancer), H1299, H1975, A549 and LLC-1 (lung cancer), HepG2 and Hep3B (liver cancer) and LO2 (normal human hepatocytes).” for “experiments.”

[24] = tested on: cancer cells from different origins; test: MTT cytotoxicity assay, summary over cancer cell lines; assay type: cell-based; conditions: range over the cancer cell lines of Table 1; read-out: mean IC50 values ranging (anti-cancer potency)
Experimental: as §1, with “experiments. Cells include HeLa cells (cervical cancer), MCF-7 (breast cancer), H1299, H1975, A549 and LLC-1 (lung cancer), HepG2 and Hep3B (liver cancer) and LO2 (normal human hepatocytes).” for “experiments.”
By contrast, the cytotoxicity was lower in LO2 normal human hepatocytes. […]

| SMILES | IC50 [1] [µM] | IC50 [2] [µM] | Resistant Factor [3] | IC50 [4] [µM] | Resistant Factor [4] | IC50 [5] [µM] | IC50 [6] [µM] | IC50 [9] [µM] | IC50 [10] [µM] | Resistant Factor [10] | IC50 [11] [µM] | IC50 [12] [µM] | IC50 [13] [µM] | IC50 [15] [µM] | Resistant Factor [15] | IC50 [16] [µM] | IC50 [18] [µM] | IC50 [19] [µM] | Resistant Factor [19] | IC50 [20] [µM] | further results |
| --- | --- | --- | --- | --- | --- | --- | --- | --- | --- | --- | --- | --- | --- | --- | --- | --- | --- | --- | --- | --- | --- |
| F[P-](F)(F)(F)(F)F.F[P-](F)(F)(F)(F)F.F[P-](F)(F)(F)(F)F.[Co+3].c1ccc(-c2ccccn2)nc1.c1ccc(-c2ccccn2)nc1.c1ccc(-c2ccccn2)nc1 [complex (VI), [Co^III(N^N)3](PF6)3] | 42.5 | 10.1 | 0.88 | 10.2 | 0.55 | 13.8 | 21 | 41.1 | 41.7 | 1.01 | 14.9 | 29.2 | 8.02 | 54.1 | 0.98 | 35.9 | 18.5 | 5.01 | 0.62 | 55 | IC50 [3]: 37.4 µM; IC50 [7]: 51.7 µM; Resistant Factor [8]: 1.00; IC50 [8]: 45 µM; IC50 [14]: 45.1 µM; IC50 [17]: 11.1 µM; Resistant Factor [17]: 0.21; IC50 [21]: 37.2 µM; IC50 [22]: 22.7 µM; IC50 [23]: 43.7 µM |
| COc1ccnc(-c2cc(OC)ccn2)c1.COc1ccnc(-c2cc(OC)ccn2)c1.COc1ccnc(-c2cc(OC)ccn2)c1.F[P-](F)(F)(F)(F)F.F[P-](F)(F)(F)(F)F.F[P-](F)(F)(F)(F)F.[Co+3] [complex (VII), [Co^III(4,4′-(OMe)2-Bpy)3](PF6)3] | 14 | 10.8 | 1.45 | 1.04 | 0.24 | 5.33 | 9.31 | 21.6 | 20.7 | 0.96 | 8.71 | 8.71 | 9.45 | 27 | 1.13 | 12.8 | 4.3 | 6.28 | 0.66 | 24 | IC50 [3]: 20.3 µM; IC50 [7]: 15 µM; Resistant Factor [8]: 0.53; IC50 [8]: 41.3 µM; IC50 [14]: 77.8 µM; IC50 [17]: 2.85 µM; Resistant Factor [17]: 0.19; IC50 [21]: 18.6 µM; IC50 [22]: 15.4 µM; IC50 [23]: 20.6 µM |
| CCCCCCCCCc1ccnc(-c2cc(CCCCCCCCC)ccn2)c1.CCCCCCCCCc1ccnc(-c2cc(CCCCCCCCC)ccn2)c1.CCCCCCCCCc1ccnc(-c2cc(CCCCCCCCC)ccn2)c1.F[P-](F)(F)(F)(F)F.F[P-](F)(F)(F)(F)F.F[P-](F)(F)(F)(F)F.[Co+3] [complex (VIII), [Co^III(4,4′-(C9H19)2-Bpy)3](PF6)3] | 49.4 | 37.4 | 1.87 | 41.1 | 0.73 | 54.1 | 24.2 | 36.3 | 35.9 | 0.99 | 26.7 | 10.4 | 28.5 | 29.1 | 0.96 | 21.3 | 56.4 | 11.1 | 0.39 | 30.2 | IC50 [21]: 82.8 µM; IC50 [22]: 26 µM; IC50 [24]: 10.4 to 82.8 µM; IC50 [23]: 40.2 µM |
